Assay results published in patent publication US6846843B2, “β-thioamino acids” (Gruenenthal GmbH, priority 2000, dated 2005).
Structures can show the parent of a compound that is named as a salt.

Each molecule was assayed against gabapentin binding site (assay: Gabapentin binding assay (displacement of gabapentin from its binding site)). Conditions: displacement of gabapentin; hydrochloride; read-out: Affinity (IC50).
Method: Gabapentin is used in the binding assay in order to determine the binding and affinities of the selected compounds. The affinity of the compounds according to the invention is measured via the displacement of gabapentin from its binding site.

In order of falling IC50:
1. CCCCCCCC(C)(S)C(N)C(=O)O (racemic) [Compound 11, rac-erythro-2-amino-3-mercapto-3-methyldecanoic acid hydrochloride]  120 nM
2. CCCCCC(C)(S)C(N)C(=O)O (racemic) [Compound 14, rac-threo-2-amino-3-mercapto-3-methyloctanoic acid hydrochloride]  100 nM
3. CCCCCCC(C)(S)C(N)C(=O)O (racemic) [Compound 13, rac-erythro-2-amino-3-mercapto-3-methylnonanoic acid hydrochloride]  30 nM

Same assay, conditions: displacement of gabapentin; read-out: Affinity (IC50)

In order of rising IC50:
1. NC(C(=O)O)C1(S)CCCCC1 (racemic) [Compound 31, rac-amino-(1-mercaptocyclohexyl)ethanoic acid hydrochloride]  187 nM
2. CCC(C)C(C)(S)C(N)C(=O)O (racemic) [Compound 37, rac-2-amino-3-mercapto-3,4-dimethylhexanoic acid hydrochloride]  196 nM
3. CC1CCCC(S)(C(N)C(=O)O)C1 (racemic) [Compound 32, rac-amino-(1-mercapto-3-methylcyclohexyl)ethanoic acid hydrochloride]  223 nM
4. CCC(S)(CC)C(N)C(=O)O (racemic) [Compound 7, rac-2-amino-3-ethyl-3-mercaptopentanoic acid hydrochloride]  258 nM
5. CCC(C)(S)C(N)C(=O)O (racemic) [Compound 1, rac-2-amino-3-mercapto-3-methylpentanoic acid hydrochloride]  268 nM
6. CCCCCCC(C)(SCC)C(N)C(=O)O (racemic) [Compound 19, rac-2-amino-3-ethylsulfanyl-3-methylnonanoic acid hydrochloride]  271 nM
7. CCCCC(C)(S)C(N)C(=O)O.Cl (racemic) [Compound 3, rac-2-amino-3-mercapto-3-methylheptanoic acid hydrochloride]  280 nM
8. CCCCC(S)(CC)C(N)C(=O)O (racemic) [Compound 30, rac-2-amino-3-ethyl-3-mercaptoheptanoic acid hydrochloride]  314 nM
9. CCCCCCC(C)(SCc1ccccc1)C(N)C(=O)O (racemic) [Compound 22, rac-2-amino-3-benzylsulfanyl-3-methyl-nonanoic acid hydrochloride]  336 nM
10. CCCC(S)(CC)C(N)C(=O)O.Cl (racemic) [Compound 9, rac-amino-3-ethyl-3-mercaptohexanoic acid hydrochloride]  339 nM
11. CC1CCCCC1(S)C(N)C(=O)O (racemic) [Compound 33, rac-amino-(1-mercapto-2-methylcyclohexyl)ethanoic acid hydrochloride]  528 nM
12. CC(S)(C1CCC1)C(N)C(=O)O (racemic) [Compound 27, rac-2-amino-3-cyclobutyl-3-mercapto-butanoic acid hydrochloride]  589 nM
13. CC(S)(C1CC1)C(N)C(=O)O (racemic) [Compound 26, rac-2-amino-3-cyclopropyl-3-mercaptobutanoic acid hydrochloride]  703 nM
14. CC1CCC(S)(C(N)C(=O)O)CC1 (racemic) [Compound 34, rac-amino-(1-mercapto-4-methylcyclohexyl)ethanoic acid hydrochloride]  1000 nM
15. CC(S)(C1CCCCC1)C(N)C(=O)O (racemic) [Compound 28, rac-2-amino-3-cyclohexyl-3-mercaptobutanoic acid hydrochloride]  1320 nM
16. CCCCCC(C)(SCc1ccccc1)C(N)C(=O)O (racemic) [Compound 16, rac-threo-2-amino-3-benzylsulfanyl-3-methyl-octanoic acid hydrochloride]  1800 nM
17. CCCC(S)(CCC)C(N)C(=O)O (racemic) [Compound 17, rac-2-amino-3-mercapto-3-propyl-3-hexanoic acid hydrochloride]  2350 nM
18. CCCCCCC(C)(SCCC)C(N)C(=O)O (racemic) [Compound 20, rac-2-amino-3-methyl-3-propylsulfanylnonanoic acid hydrochloride]  3050 nM
19. CCCCCCSC(C)(CCCCCC)C(N)C(=O)O (racemic) [Compound 21, rac-2-amino-3-hexylsulfanyl-3-methylnonanoic acid hydrochloride]  12400 nM

Same assay, conditions: inhibition of gabapentin binding

`Cl.NC(C(=O)O)C1(S)CCCCCC1` (racemic) [Compound 18, rac-amino-(1-mercaptocycloheptyl)acetic acid hydrochloride] was tested, and the “% Inhibition (Concn.)” value was 15% (10^−5 μm).
In the case of `CC(S)(c1cccs1)C(N)C(=O)O.Cl` (racemic) [Compound 29, rac-2-amino-3-mercapto-3-thiophen-2-yl-butanoic acid hydrochloride], the “% Inhibition (Concn.)” value is reported as 30% (10^−5 μm).
`Cl.NC(C(=O)O)C(S)(c1ccc(F)cc1)C1CC1` (racemic) [Compound 25, rac-2-amino-3-cyclopropyl-3-(4-fluorophenyl)-3-mercapto-propionic acid hydrochloride] was tested, and the “% Inhibition (Concn.)” value was 40% (10^−5 μm).
For `CC(C)C(C)(S)C(N)C(=O)O.Cl` (racemic) [Compound 36, rac-2-amino-3-mercapto-3,4-dimethylpentanoic acid hydrochloride], the “% Inhibition (Concn.)” value was 88% (10^−5 μm).
In the case of `CCCCCC(C)(SCC)C(N)C(=O)O.Cl` (racemic) [Compound 15, rac-2-amino-3-ethylsulfanyl-3-methyloctanoic acid hydrochloride], the “% Inhibition (Concn.)” value is reported as 92% (10^−5 μm).
For `CCCCCCCC(C)(SCc1ccccc1)C(N)C(=O)O.Cl` (racemic) [Compound 23, rac-2-amino-3-benzylsulfanyl-3-methyldecanoic acid hydrochloride], the “% Inhibition (Concn.)” value was 91% (10^−5 μm).
In the case of `Cl.NC(C(=O)O)C1(S)CCSCC1` (racemic) [Compound 35, rac-amino-(4-mercaptotetrahydrothiopyran-4-yl)ethanoic acid hydrochloride], the “% Inhibition (Concn.)” value is reported as 84% (10^−5 μm).
For `CCCCCCCC(C)(SCC)C(N)C(=O)O.Cl` (racemic) [Compound 24, rac-2-amino-3-ethylsulfanyl-3-methyldecanoic acid hydrochloride], the “% Inhibition (Concn.)” value was 90% (10^−5 μm).

In order of rising “% Inhibition (Concn.)” value:
1. CCCCCC(C)(SCc1ccccc1)C(N)C(=O)O (racemic) [Compound 16, rac-threo-2-amino-3-benzylsulfanyl-3-methyl-octanoic acid hydrochloride]  93%
2. CCCC(S)(CC)C(N)C(=O)O.Cl (racemic) [Compound 9, rac-amino-3-ethyl-3-mercaptohexanoic acid hydrochloride]  97.5%
3. CCCCC(C)(S)C(N)C(=O)O.Cl (racemic) [Compound 3, rac-2-amino-3-mercapto-3-methylheptanoic acid hydrochloride]  99.7%
